Consider 25 molecules from patent publication US6642256B2, “Piperidine derivatives as subtype selective N-Methyl-D-Aspartate antagonists” (Warner-Lambert Company LLC, priority 2000, dated 2003).

The structures appear in SMILES notation. Where a name gives a salt, the structure may show the parent alone.

The target in one data set is T1, NR1A/NR2B NMDA receptor subtype (Rattus norvegicus, UniProt P35439+Q00960).
T1 construct: buffy coat membrane fraction was prepared from frozen adult rat forebrains; tissue Zivic-Miller Laboratories, Inc; host or cells: adult rat forebrain membranes
T1 sequence (Q00960 27-1482, other chains not shown): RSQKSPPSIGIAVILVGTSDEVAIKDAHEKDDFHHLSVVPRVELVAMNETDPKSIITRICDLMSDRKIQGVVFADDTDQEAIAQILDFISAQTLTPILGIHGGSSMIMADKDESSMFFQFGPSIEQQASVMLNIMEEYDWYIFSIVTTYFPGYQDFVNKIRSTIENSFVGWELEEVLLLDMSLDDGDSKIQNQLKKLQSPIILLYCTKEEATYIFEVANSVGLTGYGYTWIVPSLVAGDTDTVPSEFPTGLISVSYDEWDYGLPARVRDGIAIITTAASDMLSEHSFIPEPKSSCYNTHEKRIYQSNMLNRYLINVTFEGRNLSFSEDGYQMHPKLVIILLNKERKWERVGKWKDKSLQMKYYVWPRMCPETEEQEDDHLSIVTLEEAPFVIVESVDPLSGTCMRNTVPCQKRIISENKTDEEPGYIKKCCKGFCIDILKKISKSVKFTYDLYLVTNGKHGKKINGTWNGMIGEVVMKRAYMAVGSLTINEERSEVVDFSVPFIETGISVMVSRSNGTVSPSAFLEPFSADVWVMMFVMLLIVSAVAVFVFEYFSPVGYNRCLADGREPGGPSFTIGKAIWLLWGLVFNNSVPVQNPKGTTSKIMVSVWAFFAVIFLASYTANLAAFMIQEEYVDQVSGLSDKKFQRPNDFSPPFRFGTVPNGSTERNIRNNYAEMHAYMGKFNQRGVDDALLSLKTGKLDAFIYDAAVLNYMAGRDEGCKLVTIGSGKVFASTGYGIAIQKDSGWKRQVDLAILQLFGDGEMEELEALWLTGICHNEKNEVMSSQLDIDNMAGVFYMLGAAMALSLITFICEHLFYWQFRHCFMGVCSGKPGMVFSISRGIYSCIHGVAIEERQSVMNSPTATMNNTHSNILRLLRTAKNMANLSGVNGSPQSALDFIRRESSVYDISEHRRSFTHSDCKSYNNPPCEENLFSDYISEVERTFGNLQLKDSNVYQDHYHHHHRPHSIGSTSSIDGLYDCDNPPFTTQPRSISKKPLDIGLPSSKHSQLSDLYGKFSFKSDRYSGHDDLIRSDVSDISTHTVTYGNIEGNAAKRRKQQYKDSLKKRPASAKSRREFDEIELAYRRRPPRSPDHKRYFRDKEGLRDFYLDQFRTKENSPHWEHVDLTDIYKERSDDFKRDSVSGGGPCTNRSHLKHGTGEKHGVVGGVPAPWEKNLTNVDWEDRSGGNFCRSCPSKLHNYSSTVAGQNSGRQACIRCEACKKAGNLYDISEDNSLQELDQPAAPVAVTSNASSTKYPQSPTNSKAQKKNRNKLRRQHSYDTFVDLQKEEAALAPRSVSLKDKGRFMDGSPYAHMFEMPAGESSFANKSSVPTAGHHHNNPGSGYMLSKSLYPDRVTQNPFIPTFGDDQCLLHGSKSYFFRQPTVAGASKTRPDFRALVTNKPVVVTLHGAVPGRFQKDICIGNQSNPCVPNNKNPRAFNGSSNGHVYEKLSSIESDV
The data set can be described thus: [3H]Ifenprodil binding assay (IFPNR), rat forebrain membranes. Conditions: Table 1, 4 nM [3H]-ifenprodil, read-out: IFPNR (IC50 μM). The procedure:
b. [^3H]Ifenprodil Binding Assay (IFPNR) Protocol:
Ifenprodil, [phenyl-^3H]-(specific activity, 66.2 Ci/mmol) was purchased from Dupont NEN Research Products (Boston, Mass.). Ifenprodil tartrate was purchased from Research Biochemicals International (Natick, Mass.). HEPES, glutamate and glycine were purchased from Sigma Chemical Co. (St. Louis, Mo.).
All buffers and reagents used in assay incubations or to dissolve drugs were prepared using water purified through a Milli-Q reverse osmosis system (Millipore Corp., Bedford, Mass.) and treated with UV emissions. Prior to use in the assays buffers were further filtered through a sterile Coming filtration unit (Coming Glass Works, Coming, N.Y.) containing a 0.2 micron filter. Buffer used to rinse the membranes on the assay filters was prepared with purified water, but was not refiltered and was stored no longer than 5 days. Stock solutions of the drugs (usually 10 mM) were dissolved in 20 mM HEPES-KOH buffer pH 7.4 (assay buffer) with the addition of 1 to 5 μL of glacial AcOH, if needed to keep them in solution. Eliprodil was used as the reference NMDA antagonist. A stock solution of eliprodil was prepared, and was buffered with the addition of 10% DMSO. All subsequent dilutions from the stock solution were made in buffer.
An extensively washed buffy coat membrane fraction was prepared from frozen adult rat forebrains (Zivic-Miller Laboratories, Inc., Zelienople, Pa.) as described by Coughenour L. L.; Cordon, J. J., J. Pharmacol. Exp. Ther., 1997;280:584-592, and stored at −80° C. On the day of the assay, pellets of the frozen membrane fractions were resuspended in 35 mL of assay buffer at pH 7.4 using a POLYTRON (Kinematica A. G. Company, Littau, Switzerland) mixer at setting 6. After incubation at 37° C. for 30 minutes in a shaking water bath, the homogenate was centrifuged 40,000×g for 10 minutes at 4° C. The pellets were resuspended in fresh buffer and centrifuged 3 more times before final suspension for use in the assay.
(iii) [^3H]Ifenprodil Binding protocol:
Triplicate incubations were carried out in a volume of 0.5 mL in 1.3 mL polypropylene tubes (Marsh Biomedical Products Inc, Rochester, N.Y.) for 2 hours at room temperature. Incubations contained invention compounds, membranes (100-200 μg protein) and 4 nM [^3H]-ifenprodil in 20 mM HEPES-KOH buffer, pH 7.4 (assay buffer). Assays were started by addition of the membranes. Bound radioligand was separated by filtration under reduced pressure using a TOMTEC Mach II, 96-well cell harvester (Tomtec Inc, Orange, Conn.). Filtration was through Whatman GF/B glass fiber filters (Whatman Ltd., Maidstone, England), which had been soaked for at least 15 minutes in 0.3% polyethylenimine and allowed to air dry. The filters were rinsed with 3 mL of ice cold assay buffer within 6 seconds. Air was allowed to pass through the filters for an additional 10 seconds to remove residual moisture. The filter mat was supported on a cold (−20° C.) TEFLON (E. I. Du Pont de Nemours and Company, Wilmington, Del.) coated support, and filters from individual wells were separated and placed in Mini Poly-Q vials (Becklman Instruments Inc, Fullerton, Calif.) and filled with 4 mL of scintillation cocktail (Beckman Ready Protein^+). Radioactivity retained on the filter was determined by liquid scintillation spectrophotometry. Nonspecific binding was defined as the binding in the presence of […] ifenprodil. Ninety percent of the total binding of ifenprodil was specific binding at the NR1A/NR2B NMDA receptor subtype active site (as opposed to binding at a remote site).
Binding curves were statistically analyzed for a best 1- or 2-site competition fit using GRAPHPAD PRISM software (GraphPad Software Inc, San Diego, Calif.), a computer program used to analyze and graph scientific data. The normalized data was fitted by nonweighted nonlinear regression to either [formula]
Control data was entered as 100%, and no parameters were constrained. […]
For orientation: IC50 means the concentration needed to halve the response being measured. `O=c1[nH]c2ccc(C3=NOC(CN4CCC(Cc5ccc(F)cc5)CC4)C3)cc2o1` (racemic) [Example 3, 6-{5-[4-(4-Fluorobenzyl)piperidin-1-ylmethyl]-4,5-dihydroisoxazol-3-yl}-3H-benzoxazol-2-one hydrochloride]: the IC50 is 0.03 µM.

Still in this data set, the particulars now being: Table 2, 4 nM [3H]-ifenprodil, read-out: IFPNR IC50 μm.
With `S=c1[nH]c2ccc(-c3cnc(CN4CCC(Cc5ccccc5)CC4)s3)cc2[nH]1` [Example 8, 5-[2-(4-Benzylpiperidin-1-ylmethyl)thiazol-5-yl]-1,3-dihydrobenzimidazole-2-thione], the IC50 stood at 0.066 µM.

Take `O=c1[nH]c2ccc(-c3cnc(CN4CCC(Cc5ccccc5)CC4)o3)cc2o1` [Example 10, 6-[2-(4-Benzylpiperidin-1-ylmethyl)oxazol-5-yl]-3H-benzoxazol-2-one]: the IC50 was above 1 µM.

As to `O=C1Cc2cc(-c3cnc(CN4CCC(Cc5ccccc5)CC4)o3)ccc2N1` [Example 11, 5-[2-(4-Benzylpiperidin-1-ylmethyl)oxazol-5-yl]-1,3-dihydroindol-2-one], the IC50 was above 1 µM.

As to `O=c1[nH]c2ccc(C3=NCC(CN4CCC(Cc5ccccc5)CC4)S3)cc2o1` (stereo not shown) [Example 13, 6-[5-(4-Benzylpiperidin-1-ylmethyl)-4,5-dihydrothiazol-2-yl]-3H-benzoxazol-2-one], the IC50 came out at 0.101 µM.

Turning to `O=c1[nH]c2ccc(-c3cnc(CN4CCC(Cc5ccc(F)cc5)CC4)o3)cc2s1` [Example 9, 6-{2-[4-(4-Fluorobenzyl)piperidin-1-ylmethyl]oxazol-5-yl}-3H-benzothiazol-2-one], the IC50 was above 1 µM.

For `O=c1[nH]c2ccc(C3=NCC(CN4CCC(Cc5ccc(F)cc5)CC4)S3)cc2o1` (stereo not shown) [Example 12, 6-{5-[4-(4-Fluorobenzyl)piperidin-1-ylmethyl]-4,5-dihydrothiazol-2-yl}-3H-benzoxazol-2-one], the IC50 came out at 0.394 µM.

For `O=c1[nH]c2ccc(-c3cnc(CN4CCC(Cc5ccc(F)cc5)CC4)s3)cc2o1` [Example 6, 6-{2-[4-(4-Fluorobenzyl)piperidin-1-ylmethyl]thiazol-5-yl}-3H-benzoxazol-2-one], the IC50 is 0.54 µM.

`O=c1[nH]c2ccc(-c3cnc(CN4CCC(Cc5ccc(F)cc5)CC4)s3)cc2s1` [Example 7, 6-{2-[4-(4-Fluorobenzyl)piperidin-1-ylmethyl]thiazol-5-yl}-3H-benzothiazol-2-one]: the IC50 turned out to be 0.45 µM.

Still in this data set, the particulars now being: Table 3, 4 nM [3H]-ifenprodil, read-out: IFPNR IC50.
For `Cc1noc(CN2CCC(Cc3ccccc3)CC2)c1-c1ccc2[nH]c(=O)oc2c1` [Example 2, 6-[5-(4-Benzylpiperidin-1-ylmethyl)-3-methylisoxazol-4-yl]-3H-benzoxazol-2-one], the IC50 is above 1 µM.

In the case of `O=c1[nH]c2ccc(C3=NOC(CN4CCC(O)(Cc5ccc(F)cc5)CC4)C3)cc2o1` (stereo not shown) [Example 20, 6-{5-[4-(4-Fluorobenzyl)-4-hydroxypiperidin-1-ylmethyl]-4,5-dihydroisoxazol-3-yl}-3H-benzoxazol-2-one], the IC50 was found to be 0.008 µM.

For the molecule `O=c1[nH]c2ccc(C3=NOC(CCN4CCC(Cc5ccc(F)cc5)CC4)C3)cc2o1` (stereo not shown) [Example 19, 6-(5-{2-[4-(4-Fluorobenzyl)piperidin-1-yl]ethyl}-4,5-dihydroisoxazol-3-yl)-3H-benzoxazol-2-one], the IC50 came out at 0.4 µM.

On to `O=c1[nH]c2ccc(C3=NOC(CN4CCC(O)(Cc5ccccc5)CC4)C3)cc2o1` (stereo not shown) [Example 17, 6-[5-(4-Benzyl-4-hydroxypiperidin-1-ylmethyl)-4,5-dihydroisoxazol-3-yl]-3H-benzoxazol-2-one], for which the IC50 is 0.006 µM.

The data set is the same for the next values; noted with them: Table 4, 4 nM [3H]-ifenprodil, read-out: IFPNR IC50.
In the case of `O=c1[nH]c2ccc(C3=NOC(CN4CCC([S+]([O-])c5ccc(F)cc5)CC4)C3)cc2o1` (stereo not shown) [Example 29, 6-{5-[4-(4-Fluorobenzenesulfinyl)piperidin-1-ylmethyl]-4,5-dihydroisoxazol-3-yl}-3H-benzoxazol-2-one], the IC50 amounted to 0.6 µM.

As to `O=c1[nH]c2ccc(C3=NOC(CN4CCC(C(O)c5ccc(F)cc5)CC4)C3)cc2o1` (stereo not shown) [Example 31, 6-(5-{4-[(4-Fluorophenyl)hydroxymethyl]piperidin-1-ylmethyl}-4,5-dihydroisoxazol-3-yl)-3H-benzoxazol-2-one], the concentration for half-maximal inhibition (IC50) was above 1 µM.

The data set is the same for the next values; noted with them: Table 5, 4 nM [3H]-ifenprodil, read-out: IFPNR IC50.
As for `O=c1[nH]c2ccc(C3=NOC(CN4CC[C@@H](Cc5ccc(F)cc5)[C@@H](O)C4)C3)cc2o1` (stereo in doubt) [Example 26, 6-{5-[4-(4-Fluorobenzyl)-3-hydroxypiperidin-1-ylmethyl]-4,5-dihydroisoxazol-3-yl}-3H-benzoxazol-2-one], the IC50 turned out to be 0.023 µM.

`O=c1[nH]c2ccc(C3=NOC(CN4CCC(Cc5ccc(F)cc5)CC4)C3)cc2s1` (stereo not shown) [Example 16]: the IC50 is 0.002 µM.

System in a further data set: not given
Assay: not given
Conditions: not given
The term melting point denotes the temperature, or range, at which the solid turns liquid. Molecule `CCOC(=O)C1(Cc2ccc(F)cc2)CCN(CC2CC(c3ccc4[nH]c(=O)oc4c3)=NO2)CC1` (stereo not shown) [Example 24, 4-(4-Fluorobenzyl)-1-[3-(2-oxo-2,3-dihydrobenzoxazol-6-yl)-4,5-dihydroisoxazol-5-ylmethyl]piperidine-4-carboxylic acid ethyl ester] yielded a melting point of 212 to 214 °C.

With `O=c1[nH]c2ccc(C3=NOC(CCN4CCC(Cc5ccc(F)cc5)CC4)C3)cc2o1` (stereo not shown) (as salt: HCl) [Example 19, 6-(5-{2-[4-(4-Fluorobenzyl)piperidin-1-yl]ethyl}-4,5-dihydroisoxazol-3-yl)-3H-benzoxazol-2-one], the melting point is 254 to 258 °C.

On to `O=c1[nH]c2ccc(C3=NOC(CN4CCC(O)(Cc5ccccc5)CC4)C3)cc2o1` (stereo not shown) (as salt: HCl) [Example 17, 6-[5-(4-Benzyl-4-hydroxypiperidin-1-ylmethyl)-4,5-dihydroisoxazol-3-yl]-3H-benzoxazol-2-one], for which the melting point lay within 166 to 170 °C.

Regarding `O=c1[nH]c2ccc(C3=NOC(CN4CC[C@@H](Cc5ccc(F)cc5)[C@@H](O)C4)C3)cc2o1` (stereo in doubt) (as salt: HCl) [Example 26, 6-{5-[4-(4-Fluorobenzyl)-3-hydroxypiperidin-1-ylmethyl]-4,5-dihydroisoxazol-3-yl}-3H-benzoxazol-2-one], the melting point was in the range of 224 to 233 °C.

`O=c1[nH]c2ccc(C3=NOC(CN4CCC(C(O)c5ccc(F)cc5)CC4)C3)cc2o1` (stereo not shown) (as salt: HCl) [Example 31, 6-(5-{4-[(4-Fluorophenyl)hydroxymethyl]piperidin-1-ylmethyl}-4,5-dihydroisoxazol-3-yl)-3H-benzoxazol-2-one]: the melting point is 186 to 191 °C.

Molecule `COC(=O)C1(CN2CCC(Cc3ccc(F)cc3)CC2)CC(c2ccc3[nH]c(=O)oc3c2)=NO1` (stereo not shown) (as salt: salt) [Example 23, 5-[4-(4-Fluorobenzyl)piperidin-1-ylmethyl]-3-(2-oxo-2,3-dihydrobenzoxazol-6-yl)-4,5-dihydroisoxazole-5-carboxylic acid methyl ester] had a melting point of 146 to 155 °C.

`O=c1[nH]c2ccc(C3=NOC(CN4CCC(Cc5ccc(F)cc5)CC4)C3)cc2s1` (stereo not shown) (as salt: HCl) [Example 16]: the melting point was in the range of 271 to 276 °C.

As for `O=c1[nH]c2ccc(C3=NOC(CN4CCC([S+]([O-])c5ccc(F)cc5)CC4)C3)cc2o1` (stereo not shown) (as salt: HCl) [Example 29, 6-{5-[4-(4-Fluorobenzenesulfinyl)piperidin-1-ylmethyl]-4,5-dihydroisoxazol-3-yl}-3H-benzoxazol-2-one], the melting point was in the range of 170 to 178 °C.
